Assay results: patent US10919882B2, “Compounds for use in synthesis of peptidomimetics” (THE FEINSTEIN INSTITUTES FOR MEDICAL RESEARCH, priority 2019, dated 2021)

Assay: Stability of HOBt aza building blocks with Boc, Fmoc or Phth alpha-amino protection
Assay type: physicochemical
Description: Assessing the Compatibility of HOBt Aza Building Blocks in the Presence of Traditional Alpha Amino Protecting Groups (e.g. Phth, Fmoc and Boc) with Other Protecting Synthesis and Stability
The issues with stability were observed when the N-1 is protected with R=Boc or Fmoc and R′═H. This is due to the presence of NH that leads to undesirable intramolecular cyclization and formation oxadiazoles (Future Med. Chem. (2011) 3(9), 1139-1164) Org. Biomol. Chem., 2015, 13, 59-63. Boc and Fmoc form an unwanted side reaction of carboxyanhydride in peptide synthesis with acid halogenation reagent (Acc. Chem. Res. 1996, 29, 268-274; J. Am. Chem. Soc. 1996, 118, 9796-9797) and in azapeptide synthesis with hydrazine component, the oxadiazalone will be formed (Journal of Peptide Science 2013, 19, 725-729).

Isolated Yield and Stability (solid form) (isolated product as solid): Stable white solid
SMILES: O=C(On1nnc2ccccc21)N(Cc1ccccc1)N1C(=O)c2ccccc2C1=O
Isolated Yield and Stability (in solution) (in solution / organic solvents, room temperature): Stable in organic solvents such as acetone, dichloromethane, acetonitrile, DMF at room temperature for weeks
